Twelve compounds from ChEMBL document CHEMBL3596130 (Bioorg Med Chem Lett, 2015) can be followed below.

One may read the Ki as the equilibrium dissociation constant of an inhibitor or competing ligand from its target. High values mean weaker binding, low ones tighter binding. The term EC50 denotes the concentration needed to bring the measured effect to its halfway point. The low end stands for higher potency in that assay, the high end for lower potency in that assay. As a reminder, the Emax is the size of the effect at its maximum, as opposed to the concentration needed.

One assay addresses Mu-type opioid receptor (Homo sapiens, UniProt P35372). Description: Displacement of [3H]DAMGO from human MOR expressed in CHO cells. The format is cell-based.
Assay [1] has as its target T1, Delta-type opioid receptor (Homo sapiens, UniProt P41143). Description: Displacement of [3H]DPDPE from human DOR expressed in CHO cells. The format is cell-based. On the technique in general: Loss of bound radioactivity is the signal in a displacement assay; it reports binding, not function.
Assay [2] concerns the target Kappa-type opioid receptor (Homo sapiens, UniProt P41145). Nature of the assay: Displacement of [3H]U-69,593 from human KOR expressed in CHO cells. The format is cell-based.
For assay [3], the species on record is Homo sapiens. Nature of the assay: Selectivity index, ratio of Ki for human MOR to Ki for human DOR.
For assay [4], the species on record is Homo sapiens. Description: Selectivity index, ratio of Ki for human KOR to Ki for human DOR.
Assay [5] has as its target T1, Delta-type opioid receptor. Description: Inverse agonist activity at human DOR expressed in CHO cell membranes by [35S]GTPgammaS binding assay. The format is functional.
In assay [6] the target is T1, Delta-type opioid receptor. Nature of the assay: Inverse agonist activity at human DOR expressed in CHO cell membranes by [35S]GTPgammaS binding assay relative to control. Type of assay: functional. In general terms: GTPγS is a poorly hydrolysed GTP analogue; its binding reports G protein activation.

Square brackets hold non-standard residues; d marks the D form. Peptide text beside a SMILES is read from it. * marks the point of attachment. Tyr(Nα,Nα-allyl2) = C=CCN(CC=C)[C@@H](Cc1ccc(O)cc1)C(=O)*; Aib = CC(C)(N)C(=O)O

T1 sequence (P41143 whole entry): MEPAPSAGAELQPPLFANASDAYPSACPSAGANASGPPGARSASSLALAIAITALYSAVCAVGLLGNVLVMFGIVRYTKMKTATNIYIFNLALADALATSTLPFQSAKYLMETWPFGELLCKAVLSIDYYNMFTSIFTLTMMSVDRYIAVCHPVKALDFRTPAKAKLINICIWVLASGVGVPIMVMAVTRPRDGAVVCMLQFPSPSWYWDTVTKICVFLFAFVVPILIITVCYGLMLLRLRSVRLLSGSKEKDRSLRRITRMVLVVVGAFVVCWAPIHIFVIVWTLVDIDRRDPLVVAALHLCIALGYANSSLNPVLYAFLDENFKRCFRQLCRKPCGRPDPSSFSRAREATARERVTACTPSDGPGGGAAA
Sequence of Kappa-type opioid receptor (P41145 whole entry): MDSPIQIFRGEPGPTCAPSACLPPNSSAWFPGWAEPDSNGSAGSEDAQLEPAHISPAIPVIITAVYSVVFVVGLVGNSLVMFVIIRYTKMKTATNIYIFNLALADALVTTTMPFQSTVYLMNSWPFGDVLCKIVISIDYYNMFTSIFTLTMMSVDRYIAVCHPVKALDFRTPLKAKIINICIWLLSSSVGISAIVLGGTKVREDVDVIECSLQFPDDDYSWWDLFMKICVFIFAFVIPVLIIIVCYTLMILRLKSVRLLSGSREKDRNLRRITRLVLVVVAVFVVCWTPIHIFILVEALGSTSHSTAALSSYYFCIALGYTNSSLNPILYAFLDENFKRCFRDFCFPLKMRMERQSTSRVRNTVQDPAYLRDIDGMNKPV
Sequence of Mu-type opioid receptor (P35372 whole entry): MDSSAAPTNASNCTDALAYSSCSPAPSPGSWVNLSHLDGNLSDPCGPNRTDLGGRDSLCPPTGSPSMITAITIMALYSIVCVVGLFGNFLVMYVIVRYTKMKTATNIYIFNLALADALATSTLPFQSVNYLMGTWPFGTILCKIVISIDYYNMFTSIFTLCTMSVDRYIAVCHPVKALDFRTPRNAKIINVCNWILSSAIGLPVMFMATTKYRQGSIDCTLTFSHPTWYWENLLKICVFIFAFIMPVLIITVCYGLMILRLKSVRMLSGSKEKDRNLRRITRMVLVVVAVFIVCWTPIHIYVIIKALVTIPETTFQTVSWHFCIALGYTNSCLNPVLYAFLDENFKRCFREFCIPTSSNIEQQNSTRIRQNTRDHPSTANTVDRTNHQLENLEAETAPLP

Turning to `CCN1CC[C@]23c4c5ccc(O)c4O[C@H]2c2nc4ccccc4cc2C[C@@]3(O)[C@H]1C5`, the results for the Ki (on Mu-type opioid receptor; in assay [1]; in assay [2]) were 670 nM, 8.89 nM and 477 nM, respectively. The Ratio Ki in the assay filed under Homo sapiens [3] came out at 75.4; in the assay filed under Homo sapiens [4], 53.7. This compound also had an EC50 in assay [5] of 6.71 nM. For the same compound, the Emax in assay [6] turned out to be 41.2%.

In the case of `Oc1ccc2c3c1O[C@H]1c4nc5ccccc5cc4C[C@@]4(O)[C@@H](C2)N(CC(F)F)CC[C@]314`, the Ki at Mu-type opioid receptor was greater than 1000 nM; in assay [1], 18.2 nM; in assay [2], greater than 1000 nM.

In the case of `CCCN1CC[C@]23c4c5ccc(O)c4O[C@H]2c2[nH]c4ccccc4c2C[C@@]3(O)[C@H]1C5`, the figures for the Ki (on Mu-type opioid receptor; in assay [1]; in assay [2]) were 133 nM, 1.11 nM and 74.3 nM, respectively. In addition, the Ratio Ki in the assay filed under Homo sapiens [3] amounted to 120; in the assay filed under Homo sapiens [4], 66.9.

In the case of `Oc1ccc2c3c1O[C@H]1c4nc5ccccc5cc4C[C@@]4(O)[C@@H](C2)N(CCF)CC[C@]314`, the Ki is 422 nM on Mu-type opioid receptor, 5.58 nM in assay [1] and 854 nM in assay [2]. Besides, the Ratio Ki was 75.7 in the assay listed under Homo sapiens [3] and 153 in the assay listed under Homo sapiens [4]. The compound also gave an EC50 in assay [5] of 24.7 nM. In addition, in assay [6], the Emax amounted to 27.1%.

For the compound `CCCN1CC[C@]23c4c5ccc(O)c4O[C@H]2c2nc4ccccc4cc2C[C@@]3(O)[C@H]1C5`, the Ki at Mu-type opioid receptor was 123 nM; in assay [1] it was 2.77 nM; in assay [2] it was 313 nM. The results for the Ratio Ki in the assay filed under Homo sapiens [3] and in the assay filed under Homo sapiens [4] were 44.5 and 113, respectively. The compound further yielded an EC50 in assay [5] of 5.85 nM. For the same compound, the Emax in assay [6] amounted to 62.4%.

In the case of `Oc1ccc2c3c1O[C@H]1c4nc5ccccc5cc4C[C@@]4(O)[C@@H](C2)N(CC2CC2)CC[C@]314`, the Ki at Mu-type opioid receptor was found to be 20.8 nM; in assay [1] it was 0.407 nM; in assay [2], 11 nM. The results for the Ratio Ki in the assay listed under Homo sapiens [3] and in the assay listed under Homo sapiens [4] were 51.1 and 27.1, respectively. The compound also had an EC50 in assay [5] of 9.78 nM. Further, the Emax in assay [6] was found to be 32.4%.

As for `Oc1ccc2c3c1O[C@H]1c4nc5ccccc5cc4C[C@@]4(O)[C@@H](C2)N(CC(F)(F)F)CC[C@]314`, the Ki is greater than 1000 nM at Mu-type opioid receptor, 37.8 nM in assay [1] and greater than 1000 nM in assay [2].

With `C=CCN(CC=C)[C@@H](Cc1ccc(O)cc1)C(=O)NC(C)(C)C(=O)NC(C)(C)C(=O)N[C@@H](Cc1ccccc1)C(=O)N[C@@H](CC(C)C)C(=O)O` ({Tyr(Nα,Nα-allyl2)}-[Aib][Aib]FL-OH), in assay [5], the response was half-maximal at 116 nM (EC50). Also, the Emax in assay [6] is -100%.

Consider `CCN1CC[C@]23c4c5ccc(O)c4O[C@H]2c2[nH]c4ccccc4c2C[C@@]3(O)[C@H]1C5`, for which the Ki on Mu-type opioid receptor worked out at 788 nM; in assay [1], 2.71 nM; in assay [2] it was 468 nM. In addition, the Ratio Ki in the assay filed under Homo sapiens [3] was 291; in the assay listed under Homo sapiens [4] it was 172.

`Oc1ccc2c3c1O[C@H]1c4[nH]c5ccccc5c4C[C@@]4(O)[C@@H](C2)N(CC(F)F)CC[C@]314`: the inhibition constant (Ki) at Mu-type opioid receptor is greater than 1000 nM; in assay [1], 15.5 nM; in assay [2], greater than 1000 nM. Also, a half-maximal response in assay [5] (EC50) required 17.2 nM. In addition, the Emax in assay [6] was -48.6%.

For `Oc1ccc2c3c1O[C@H]1c4[nH]c5ccccc5c4C[C@@]4(O)[C@@H](C2)N(CCF)CC[C@]314`, the Ki amounted to 675 nM at Mu-type opioid receptor, 1.94 nM in assay [1] and 397 nM in assay [2]. Further, the Ratio Ki is 348 in the assay listed under Homo sapiens [3] and 204 in the assay listed under Homo sapiens [4]. In assay [5], the EC50 is 220 nM. Further, in assay [6], the Emax is -38.1%.

As for `Oc1ccc2c3c1O[C@H]1c4[nH]c5ccccc5c4C[C@@]4(O)[C@@H](C2)N(CC(F)(F)F)CC[C@]314`, the Ki on Mu-type opioid receptor is greater than 1000 nM; in assay [1] it was 134 nM; in assay [2], greater than 1000 nM. The EC50 in assay [5] was found to be 45.5 nM. For the same compound, in assay [6], the Emax was -44.8%.
